From PubChem BioAssay (NCI)
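Method: 48-hour compound exposure of cells in 96-well plates, five concentrations, linear interpolation of endpoints. GI50 marks 50% less growth. TGI is the concentration that stops growth completely.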

Experiments:
Experiment in all cases: NCI anticancer screen, dose series, 48 h
[1] = system: SK-MEL-2 melanoma
[2] = system: HOP-62 NSCLC
[3] = system: MCF7 breast
[4] = system: IGROV1 ovarian
[5] = system: NCI/ADR-RES ovarian
[6] = system: KM12 colon
[7] = system: 786-0 renal
[8] = system: SN12C renal
[9] = system: SR leukemia
[10] = system: HS 578T breast
[11] = system: NCI-H522 lung
[12] = system: SNB-19 CNS
[13] = system: HT29 colon
[14] = system: DU-145 prostate
[15] = system: SNB-75 CNS
[16] = system: OVCAR-8 ovarian
[17] = system: T-47D breast
[18] = system: HCT-116 colon
[19] = system: LOX IMVI melanoma
[20] = system: UO-31 renal
[21] = system: MALME-3M melanoma
[22] = system: TK-10 renal
[23] = system: CAKI-1 renal
[24] = system: A549 NSCLC
[25] = system: SF-539 CNS
[26] = system: SW-620 colon
[27] = system: RXF 393 renal
[28] = system: COLO 205 colon
[29] = system: SK-OV-3 ovarian
[30] = system: OVCAR-4 ovarian
[31] = system: SF-268 CNS
[32] = system: PC-3 prostate
[33] = system: EKVX NSCLC
[34] = system: NCI-H226 lung
[35] = system: SK-MEL-28 melanoma
[36] = system: UACC-62 melanoma
[37] = system: NCI-H23 lung
[38] = system: OVCAR-3 ovarian
[39] = system: OVCAR-5 ovarian
[40] = system: MOLT-4 leukemia
[41] = system: BT-549 breast
[42] = system: K-562 leukemia
[43] = system: UACC-257 melanoma
[44] = system: HL-60(TB) leukemia
[45] = system: U251 CNS
[46] = system: NCI-H460 lung
[47] = system: HOP-92 NSCLC
[48] = system: ACHN renal
[49] = system: MDA-MB-435
[50] = system: HCT-15 colon
[51] = system: CCRF-CEM leukemia
[52] = system: M14 melanoma
[53] = system: MDA-MB-231 breast
[54] = system: SF-295 CNS
[55] = system: SK-MEL-5 melanoma
[56] = system: HCC-2998 colon
[57] = system: A498 renal
[58] = system: RPMI-8226 leukemia

**Q.** `O=C(CSCC(=O)N/N=C\c1cc(Cl)cc(Cl)c1O)N/N=C\c1cc(Cl)cc(Cl)c1O` was tested. Which TGI [1] did it give?
**A.** 12.9 µM

**Q.** What about the TGI [2] of the same compound?
**A.** 18.3 µM

**Q.** And the TGI [3]?
**A.** 34.5 µM

**Q.** What about the TGI [4] of the same compound?
**A.** 15.3 µM

**Q.** And the TGI [5]?
**A.** 12.5 µM

**Q.** And the TGI [6]?
**A.** 19.7 µM

**Q.** And the TGI [7]?
**A.** 20 µM

**Q.** And the TGI [8]?
**A.** 16.2 µM

**Q.** What about the TGI [9] of the same compound?
**A.** 11 µM

**Q.** What about the TGI [10] of the same compound?
**A.** 20.1 µM

**Q.** And the TGI [11]?
**A.** 6.59 µM

**Q.** And the TGI [12]?
**A.** > 100 µM

**Q.** What about the TGI [13] of the same compound?
**A.** 22.3 µM

**Q.** And the TGI [14]?
**A.** 21.1 µM

**Q.** And the TGI [15]?
**A.** 36 µM

**Q.** What about the TGI [16] of the same compound?
**A.** 14.3 µM

**Q.** What about the TGI [17] of the same compound?
**A.** 27.9 µM

**Q.** What about the TGI [18] of the same compound?
**A.** 12.8 µM

**Q.** What about the TGI [19] of the same compound?
**A.** 10.8 µM

**Q.** And the TGI [20]?
**A.** 17.5 µM

**Q.** And the TGI [21]?
**A.** 8.02 µM

**Q.** What about the TGI [22] of the same compound?
**A.** 21 µM

**Q.** What about the TGI [23] of the same compound?
**A.** 15 µM

**Q.** What about the TGI [24] of the same compound?
**A.** 32.8 µM

**Q.** What about the TGI [25] of the same compound?
**A.** 11.1 µM

**Q.** And the TGI [26]?
**A.** 16.2 µM

**Q.** And the TGI [27]?
**A.** > 100 µM

**Q.** And the TGI [28]?
**A.** 20.4 µM

**Q.** What about the TGI [29] of the same compound?
**A.** 24 µM

**Q.** And the TGI [30]?
**A.** 19.1 µM

**Q.** What about the TGI [31] of the same compound?
**A.** 15.7 µM

**Q.** And the TGI [32]?
**A.** 18.5 µM

**Q.** And the TGI [33]?
**A.** 28.3 µM

**Q.** And the TGI [34]?
**A.** 15 µM

**Q.** What about the TGI [35] of the same compound?
**A.** 18.9 µM

**Q.** What about the TGI [36] of the same compound?
**A.** 13.7 µM

**Q.** And the TGI [37]?
**A.** 22.9 µM

**Q.** What about the TGI [38] of the same compound?
**A.** 6.83 µM

**Q.** And the TGI [39]?
**A.** 22.9 µM

**Q.** And the TGI [40]?
**A.** 8.81 µM

**Q.** What about the TGI [41] of the same compound?
**A.** 25.8 µM

**Q.** What about the TGI [42] of the same compound?
**A.** 12.7 µM

**Q.** What about the TGI [43] of the same compound?
**A.** 18.2 µM

**Q.** What about the TGI [44] of the same compound?
**A.** 13.9 µM

**Q.** What about the TGI [45] of the same compound?
**A.** 6.61 µM

**Q.** And the TGI [46]?
**A.** 42.8 µM

**Q.** And the TGI [47]?
**A.** 31.4 µM

**Q.** What about the TGI [48] of the same compound?
**A.** 11.7 µM

**Q.** And the TGI [49]?
**A.** 21.1 µM

**Q.** What about the TGI [50] of the same compound?
**A.** 12.9 µM

**Q.** What about the TGI [51] of the same compound?
**A.** 0.748 µM

**Q.** What about the TGI [52] of the same compound?
**A.** 17.5 µM

**Q.** And the TGI [53]?
**A.** 13.5 µM

**Q.** What about the TGI [54] of the same compound?
**A.** 21 µM

**Q.** And the TGI [55]?
**A.** 16.3 µM

**Q.** What does the source list for `COc1ccc(/C=C/C(=O)c2ccc(NC(=O)CSc3nnc(-c4ccc(OC)c(OC)c4)n3-c3ccccc3)cc2)cc1`?
**A.** GI50 [1]: 5.03 µM; TGI [1]: 23.3 µM; GI50 [2]: 4.36 µM; TGI [2]: 19.4 µM; GI50 [3]: 1.41 µM; TGI [3]: 5.14 µM; GI50 [5]: 2.66 µM; TGI [5]: > 100 µM; GI50 [6]: 2.24 µM; TGI [6]: 5.54 µM; GI50 [7]: 1.78 µM; TGI [7]: 3.66 µM; GI50 [8]: 2.25 µM; TGI [8]: 7.09 µM; GI50 [9]: 0.724 µM; TGI [9]: 2.78 µM; GI50 [10]: 7.68 µM; TGI [10]: 54.3 µM; GI50 [11]: 1.48 µM; TGI [11]: 3.17 µM; GI50 [12]: 3.5 µM; TGI [12]: 16.9 µM; GI50 [13]: 1.86 µM; TGI [13]: 3.58 µM; GI50 [14]: 3.21 µM; TGI [14]: 10.8 µM; GI50 [15]: 2.6 µM; TGI [15]: 14.9 µM; GI50 [16]: 3.09 µM; TGI [16]: 14.1 µM; GI50 [17]: 2.54 µM; TGI [17]: 12.4 µM; GI50 [18]: 1.17 µM; TGI [18]: 2.66 µM; GI50 [19]: 1.46 µM; TGI [19]: 2.99 µM; GI50 [20]: 1.48 µM; TGI [20]: 3.84 µM; GI50 [21]: 1.75 µM; TGI [21]: 3.49 µM; GI50 [22]: 14.6 µM; TGI [22]: 28.1 µM; GI50 [56]: 2.97 µM; TGI [56]: 10.1 µM; GI50 [24]: 14.9 µM; TGI [24]: 31.7 µM; GI50 [25]: 1.8 µM; TGI [25]: 3.31 µM; GI50 [26]: 1.96 µM; TGI [26]: 4.07 µM; GI50 [27]: 1.66 µM; TGI [27]: 3.35 µM; GI50 [28]: 2.1 µM; TGI [28]: 4.56 µM; GI50 [29]: 13.1 µM; TGI [29]: 26.3 µM; GI50 [30]: 1.96 µM; TGI [30]: 4.75 µM; GI50 [31]: 1.89 µM; TGI [31]: 4.88 µM; GI50 [57]: 14.7 µM; TGI [57]: 28 µM; GI50 [32]: 3.09 µM; TGI [32]: 13.8 µM; GI50 [33]: 3.05 µM; TGI [33]: 14.6 µM; GI50 [34]: 3.92 µM; TGI [34]: 24.3 µM; GI50 [35]: 5.78 µM; TGI [35]: 19.2 µM; GI50 [36]: 2.26 µM; TGI [36]: 6.59 µM; GI50 [37]: 1.8 µM; TGI [37]: 4.01 µM; GI50 [38]: 1.72 µM; TGI [38]: 3.26 µM; GI50 [39]: 14 µM; TGI [39]: 28.3 µM; GI50 [40]: 2.26 µM; TGI [40]: 9.14 µM; GI50 [41]: 1.6 µM; TGI [41]: 3.49 µM; GI50 [42]: 3.02 µM; TGI [42]: 10.8 µM; GI50 [43]: 12 µM; TGI [43]: 24.4 µM; GI50 [44]: 2.57 µM; TGI [44]: 11.8 µM; GI50 [45]: 1.75 µM; TGI [45]: 3.51 µM; GI50 [46]: 5.05 µM; TGI [46]: 18 µM; GI50 [47]: 1.56 µM; TGI [47]: 3.45 µM; GI50 [48]: 2.38 µM; TGI [48]: 6.1 µM; GI50 [49]: 1.91 µM; TGI [49]: 4.13 µM; GI50 [50]: 1.8 µM; TGI [50]: 4.27 µM; GI50 [51]: 1.85 µM; TGI [51]: 5.36 µM; GI50 [52]: 1.8 µM; TGI [52]: 3.9 µM; GI50 [53]: 1.73 µM; TGI [53]: 3.65 µM; GI50 [58]: 1.72 µM; TGI [58]: 4.41 µM; GI50 [54]: 12.2 µM; TGI [54]: 25.9 µM; GI50 [55]: 1.81 µM; TGI [55]: 4.12 µM
